Results on two compounds are retold here after patent US9303057B2, “Methods and reagents for analyzing riboswitches using FRET” (CORNELL UNIVERSITY, priority 2011, dated 2016).

Experiment [1] concerns SAM-II riboswitch. In words: smFRET imaging of pseudoknot formation of surface-immobilized Cy3/Cy5-labeled riboswitch. In kind it is binding, Sargasso Sea metagenome. The procedure:
To reveal the underlying dynamics of SAM-II pseudoknot formation, single-molecule FRET (smFRET) (Aleman 2008; Lemay 2006; Brenner 2010) investigations were performed using the same labeling strategy as in Example 2 (i.e., A14^Cy3U and G52^Cy5U). To enable surface immobilization of the SAM-II riboswitch within a passivated microfluidic device and extended observation periods, a 5′-biotin moiety was included in the design (FIG. 2, FIG. 3).
smFRET data were acquired using a prism-based total internal reflection (TIR) microscope, where the biotinylated SAM-II riboswitch was surface immobilized within PEG-passivated, strepatividin-coated quartz microfluidic devices (Munro 2007). The Cy3 fluorophore was directly illuminated under 1.5 kW/cm^2 intensity at 532 nm (Laser Quantum). Photons emitted from both Cy3 and Cy5 were collected using a 1.2 NA 60× Plan-APO water-immersion objective (Nikon), where optical treatments were used to spatially separate Cy3 and Cy5 frequencies onto two, synchronized EMCCD devices (Evolve 512, Photometrics). Fluorescence data were acquired using MetaMorph acquisition software (Universal Imaging Corporation) at a rate of 66.7 frames per second (15 ms integration). Fluorescence trajectories were selected from the movie files for analysis using automated image analysis software coded in Matlab (The MathWorks). Fluorescence trajectories were selected based on the following criteria: a single catastrophic photobleaching event, at least 6:1 signal-to-background noise ratio (SNR) calculated from the total fluorescence intensity, and a FRET lifetime of at least 30 frames (450 ms) in any FRET state ≧0.15. smFRET trajectories were calculated from the acquired fluorescence data using the formula FRET=ICy5/(ICy3+ICy5), where ICy3 and ICy5 represent the Cy3 and Cy5 fluorescence intensities, respectively. Equilibrium smFRET experiments were performed in 50 mM KMOPS, 100 mM KCl, pH 7.5 buffer in the presence of an optimized oxygen scavenging and triplet state quenching cocktail in the presence of an oxygen scavenging environment (1 unit protocatchuate-3,4-dioxygenase, 2 mM protocatechuic acid; 1 mM Trolox, 1 mM cyclooctatetraene, 1 mM nitrobenzyl-alcohol) (Dave 2009). Concentrations of MgCl2 and SAM were as specified in the figure captions. […]
As previously described, the emission intensities of both Cy3 and Cy5 fluorophores were tracked simultaneously for individual surface-immobilized molecules using a wide-field, prism-based total internal reflection configuration, with a single-frequency light source (532 nm) (Munro 2007). […] The dynamic behaviors of individual molecules were assessed using hidden Markov modeling (HMM) procedures, and ensemble information was obtained by assembling single-molecule FRET trajectories into population FRET histograms. […]

Experiment [2] relates to SAM-II riboswitch. In words: Bulk FRET detection of pseudoknot formation (steady-state fluorescence of Cy3/Cy5-labeled riboswitch). Format: binding, Sargasso Sea metagenome. As to the method: FIG. 2 illustrates the construction of a Cy3/Cy5-labeled SAM-II construct sensitive to pseudoknot formation. (a) The strategy for synthesis, labeling and enzymatic ligation is shown, with the chemical structures of fluorophores and linkers provided in FIG. 3. (b) Anion-exchange (AE) HPLC trace of enzymatic ligation using T4 DNA ligase and a DNA splint at the start (0 h) and after completion (9 h). The product (retention time=37.3 min) was purified by AE-HPLC. (c) LC-ESI mass spectrum of purified ligation product. (d) Fluorescence emission response of the acceptor dye in the Cy5/Cy3 labeled SAM-II construct upon consecutive Mg^2+ and SAM addition under conditions where cRNA=0.5 μM, cSAM=5.0 μM, cmg=2.0 mM, 50 mM KMOPS, 100 mM KCl, 20° C., pH 7.5; λex=540 nm, λem=665 nm.
All experiments were measured on a Cary Eclipse spectrometer (Varian, Palo Alto, USA) equipped with a peltier block, a magnetic stirring device, and a RX2000 stopped-flow apparatus (Applied Photophysics Ltd., Leatherhead, UK).
Based on the reported structure of the SAM-II riboswitch (Gilbert 2008), an acceptor (Cy5) fluorophore was attached to the non-conserved nucleoside at position 14, and a donor (Cy3) fluorophore at the unpaired terminal residue at position 52 (FIG. 1a). […]

Turning to `[Cl-].[Cl-].[Mg+2]` [Mg^2+], in the experiment with SAM-II riboswitch [1] (2 mM Mg2+, no SAM), the “increase of the absolute value of the low-FRET state” value is recorded as 0.08 and the “stabilization of the high-FRET state” value is reported as “approximately 10 fold”.

Turning to `C[S+](CC[C@H](N)C(=O)O)C[C@H]1O[C@@H](n2cnc3c(N)ncnc32)[C@H](O)[C@@H]1O` (stereo partly drawn) [SAM, S-adenosylmethionine], the “observed rate of increase of acceptor fluorescence emission (single exponential)” value in the experiment with SAM-II riboswitch [2] (6 equivalents of SAM, Cy3/Cy5-labeled riboswitch, cRNA=0.5 μM, 2.0 mM Mg2+, 20° C., pH 7.5) is on record as 1.19±0.06×10^−2 s^−1. For the same compound, the “fluorescence emission from the acceptor fluorophore achieved via FRET” value in the experiment on SAM-II riboswitch [2] (addition of 10 equivalents of SAM) is “dramatically increase in intensity”. Besides, in the experiment with SAM-II riboswitch [1] (2 mM Mg2+ and 10 μM SAM), the “average dwell time in the high-FRET state” value is “approximately one” and the “stabilization of the high-FRET state” value is listed as roughly 10 fold.
